Source: ChEMBL document CHEMBL1926531, “Butamben derivatives enhance BMP-2-stimulated commitment of C2C12 cells into osteoblasts with induction of voltage-gated potassium channel expression” (Bioorg Med Chem Lett, 2011)
The source made the active and inactive calls. The calls are words filed in the database; no cut-off is given here.

Columns and labels:
[1] = molecular target: T1, Bone morphogenetic protein 2 (Homo sapiens) (UniProt P12643); assay: Increase in human recombinant BMP2-mediated osteoblastogenesis in mouse C2C12 cells assessed as induction of alkaline phosphatase activity after 6 days; assay type: cell-based
T1 sequence (whole entry): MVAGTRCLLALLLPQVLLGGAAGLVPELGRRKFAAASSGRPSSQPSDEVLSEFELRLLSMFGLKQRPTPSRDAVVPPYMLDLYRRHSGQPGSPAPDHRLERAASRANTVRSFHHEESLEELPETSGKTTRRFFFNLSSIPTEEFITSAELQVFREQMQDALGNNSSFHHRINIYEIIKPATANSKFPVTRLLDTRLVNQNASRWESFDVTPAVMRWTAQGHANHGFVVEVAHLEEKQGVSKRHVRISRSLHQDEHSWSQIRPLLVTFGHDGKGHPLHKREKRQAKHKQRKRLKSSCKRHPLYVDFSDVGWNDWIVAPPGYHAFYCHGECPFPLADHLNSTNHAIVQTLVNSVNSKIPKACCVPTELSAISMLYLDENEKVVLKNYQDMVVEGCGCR

[2] = molecular target: T1, Bone morphogenetic protein 2 (Homo sapiens); assay: Increase in BMP2-mediated osteoblastogenesis in mouse C2C12 cells assessed as increase in BMP9 mRNA level at 10 uM by SYBR-based RT-PCR; assay type: cell-based
[3] = molecular target: T1, Bone morphogenetic protein 2 (Homo sapiens); assay: Increase in BMP2-mediated osteoblastogenesis in mouse C2C12 cells assessed as increase in BMP6 mRNA level at 10 uM by SYBR-based RT-PCR; assay type: cell-based
[4] = molecular target: T1, Bone morphogenetic protein 2 (Homo sapiens); assay: Increase in BMP2-mediated osteoblastogenesis in mouse C2C12 cells assessed as increase in BMP7 mRNA level at 10 uM by SYBR-based RT-PCR; assay type: cell-based
[5] = molecular target: T1, Bone morphogenetic protein 2 (Homo sapiens); assay: Increase in BMP2-mediated osteoblastogenesis in mouse C2C12 cells assessed as increase in BMP4 mRNA level at 10 uM by SYBR-based RT-PCR; assay type: cell-based
C2C12 = assay: Induction of alkaline phosphatase activity in mouse C2C12 cells; assay type: cell-based
[6] = molecular target: T1, Bone morphogenetic protein 2 (Homo sapiens); assay: Increase in BMP2-mediated osteoblastogenesis in mouse C2C12 cells assessed as increase in OCN mRNA level at 10 uM by SYBR-based RT-PCR; assay type: cell-based
[7] = molecular target: T1, Bone morphogenetic protein 2 (Homo sapiens); assay: Increase in BMP2-mediated osteoblastogenesis assessed as increase in BMP7 protein level in mouse C2C12 cells at 10 uM by Western blot analysis; assay type: cell-based
[8] = molecular target: T1, Bone morphogenetic protein 2 (Homo sapiens); assay: Increase in human recombinant BMP2-mediated osteoblastogenesis assessed as increase in alkaline phosphatase activity in mouse C2C12 at 10 uM co-treated with BMP2 antagonist noggin on day 3 measured after 6 days; assay type: functional
[9] = molecular target: T1, Bone morphogenetic protein 2 (Homo sapiens); assay: Increase in BMP2-mediated osteoblastogenesis assessed as increase in phosphorylated of Smad level in nucleus at 10 uM after 6 hrs by Western blot analysis
[10] = molecular target: T1, Bone morphogenetic protein 2 (Homo sapiens); assay: Increase in BMP2-mediated osteoblastogenesis assessed as increase in Kv4.2 mRNA expression at 10 uM after 6 hrs after 3 days by RT-PCR analysis
[11] = molecular target: T1, Bone morphogenetic protein 2 (Homo sapiens); assay: Increase in BMP2-mediated osteoblastogenesis assessed as increase in Kv1.1 mRNA expression at 10 uM by RT-PCR analysis
[12] = molecular target: T1, Bone morphogenetic protein 2 (Homo sapiens); assay: Increase in BMP2-mediated osteoblastogenesis assessed as increase in phosphorylation of Smad at 10 uM by Western blot analysis
[13] = molecular target: T1, Bone morphogenetic protein 2 (Homo sapiens); assay: Increase in human recombinant BMP2-mediated osteoblastogenesis assessed as increase in alkaline phosphatase mRNA expression in mouse C2C12 at 10 uM co-treated with BMP2 antagonist noggin on day 3 measured after 6 days by SYBR-based RT-PCR; assay type: functional
[14] = molecular target: T1, Bone morphogenetic protein 2 (Homo sapiens); assay: Increase in BMP2-mediated osteoblastogenesis assessed as increase in Kv1.5 mRNA expression at 10 uM after 3 days by RT-PCR analysis
[15] = molecular target: T1, Bone morphogenetic protein 2 (Homo sapiens); assay: Increase in BMP2-mediated osteoblastogenesis assessed as increase in nuclear translocation of Smad at 10 uM by Western blot analysis
[16] = molecular target: T1, Bone morphogenetic protein 2 (Homo sapiens); assay: Increase in human recombinant BMP2-mediated osteoblastogenesis assessed as increase in alkaline phosphatase mRNA expression in mouse C2C12 cells at 10 uM treated with BMP2 antagonist noggin on day 4 post compound challenge measured after 6 days by SYBR-based RT-PCR; assay type: functional, cell-based
[17] = molecular target: T1, Bone morphogenetic protein 2 (Homo sapiens); assay: Increase in BMP2-mediated osteoblastogenesis assessed as increase in Kv4.3 mRNA expression at 10 uM after 6 hrs after 3 days by RT-PCR analysis
[18] = molecular target: T1, Bone morphogenetic protein 2 (Homo sapiens); assay: Increase in BMP2-mediated osteoblastogenesis assessed as increase in BMP2 protein level in mouse C2C12 cells at 10 uM by Western blot analysis; assay type: cell-based
[19] = molecular target: T1, Bone morphogenetic protein 2 (Homo sapiens); assay: Increase in human recombinant BMP2-mediated osteoblastogenesis assessed as increase in alkaline phosphatase activity in mouse C2C12 cells at 10 uM treated with BMP2 antagonist on day 4 post compound challenge measured after 6 days; assay type: functional, cell-based

Row | Activity [1] | Activity [2] | Activity [3] | Activity [4] | Activity [5] | Activity [6] | Activity [7] | Activity [8] | Activity [9] | Activity [10] | Activity [11] | Activity [12] | Activity [13] | Activity [14] | Activity [15] | Activity [16] | Activity [17] | Activity [18] | Activity [19] | Structure (SMILES) | Activity (C2C12)
1 | Dose-dependent effect | Active | Active | Active | Active | Active |  |  |  |  |  |  |  |  |  |  |  |  |  | CC(C)OC(=O)c1ccc(N)cc1 | inactive
2 | Dose-dependent effect | Active | Active | Active | Active | Active |  |  |  |  |  |  |  |  |  |  |  |  |  | CCCCOC(=O)c1ccc(N)cc1 | inactive
3 | Dose-dependent effect | Active | Active | Active | Active | Active | Active | inactive | Active | Active | Active | Active | inactive | Active | Active | inactive | Active | Active | inactive | CCCCOC(=O)c1ccc(NC(C)=O)cc1 | inactive
4 | Dose-dependent effect | Active | Active | Active | Active | Active |  |  |  |  |  |  |  |  |  |  |  |  |  | COC(=O)c1ccc(N)cc1 | inactive
